In patent US20060045953A1 (priority 2004, published 2006) one finds EC50 data, which are given here for 38 compounds.

The assay deals with T1, hT1R1/hT1R3 umami receptor (Homo sapiens, UniProt Q7RTX0+Q7RTX1).
T1 construct: expressed in transfected cells; host or cells: HEK293 derivative stably expressing Gα15, clone I-17, expression induced with mifepristone
T1 sequence (Q7RTX1 21-841): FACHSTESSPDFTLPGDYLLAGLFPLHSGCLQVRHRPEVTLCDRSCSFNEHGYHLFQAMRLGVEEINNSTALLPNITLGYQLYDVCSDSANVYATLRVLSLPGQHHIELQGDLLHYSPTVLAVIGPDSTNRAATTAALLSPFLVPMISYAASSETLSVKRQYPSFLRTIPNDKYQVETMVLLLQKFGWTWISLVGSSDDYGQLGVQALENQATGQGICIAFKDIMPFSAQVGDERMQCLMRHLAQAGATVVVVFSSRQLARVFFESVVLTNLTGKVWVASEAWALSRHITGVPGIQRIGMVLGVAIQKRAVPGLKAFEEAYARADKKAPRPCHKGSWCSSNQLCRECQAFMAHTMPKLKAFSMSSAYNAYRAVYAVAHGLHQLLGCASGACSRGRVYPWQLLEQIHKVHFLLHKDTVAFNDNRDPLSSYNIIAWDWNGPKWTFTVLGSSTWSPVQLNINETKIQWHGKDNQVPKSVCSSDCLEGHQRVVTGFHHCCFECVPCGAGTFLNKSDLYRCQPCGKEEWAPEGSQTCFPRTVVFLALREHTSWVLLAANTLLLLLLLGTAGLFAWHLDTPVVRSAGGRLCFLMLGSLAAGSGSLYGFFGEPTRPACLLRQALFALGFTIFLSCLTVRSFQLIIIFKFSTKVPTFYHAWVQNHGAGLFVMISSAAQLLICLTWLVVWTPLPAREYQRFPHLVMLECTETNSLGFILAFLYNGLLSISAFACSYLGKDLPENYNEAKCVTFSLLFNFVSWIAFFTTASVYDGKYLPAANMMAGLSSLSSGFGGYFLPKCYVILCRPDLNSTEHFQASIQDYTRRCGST
T1 sequence (Q7RTX0 21-852): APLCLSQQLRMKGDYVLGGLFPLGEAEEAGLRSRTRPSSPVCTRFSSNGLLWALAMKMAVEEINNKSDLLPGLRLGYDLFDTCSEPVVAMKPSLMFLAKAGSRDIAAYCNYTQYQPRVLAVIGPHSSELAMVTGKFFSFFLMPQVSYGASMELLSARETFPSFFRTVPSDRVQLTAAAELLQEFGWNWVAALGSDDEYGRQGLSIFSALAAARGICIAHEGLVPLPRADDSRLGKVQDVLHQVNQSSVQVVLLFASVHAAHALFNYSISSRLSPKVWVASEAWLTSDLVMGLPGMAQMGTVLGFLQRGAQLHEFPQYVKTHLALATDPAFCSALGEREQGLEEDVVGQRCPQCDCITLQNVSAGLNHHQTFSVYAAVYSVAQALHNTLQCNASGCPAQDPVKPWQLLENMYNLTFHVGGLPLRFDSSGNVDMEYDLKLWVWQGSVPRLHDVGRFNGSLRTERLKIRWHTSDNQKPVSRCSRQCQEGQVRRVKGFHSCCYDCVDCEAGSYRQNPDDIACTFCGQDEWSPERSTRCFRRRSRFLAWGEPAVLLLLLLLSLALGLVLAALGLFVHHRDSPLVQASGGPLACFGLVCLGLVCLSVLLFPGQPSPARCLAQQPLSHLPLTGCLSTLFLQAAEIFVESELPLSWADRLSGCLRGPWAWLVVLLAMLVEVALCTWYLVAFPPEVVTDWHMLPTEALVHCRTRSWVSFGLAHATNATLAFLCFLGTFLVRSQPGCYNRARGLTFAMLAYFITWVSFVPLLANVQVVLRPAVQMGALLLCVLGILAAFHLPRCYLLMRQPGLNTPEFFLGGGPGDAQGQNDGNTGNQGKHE
The assay is described as follows: In vitro hT1R1/hT1R3 umami taste receptor activation assay (FLIPR, dose response). The format is cell-based.

The mark [1] stands for this setting: read-out: EC50 for activation of a hT1R1/hT1R3 umami receptor expressed in an HEK293 cell line.
Setting [2] is: Table A, Umami Amides, read-out: Umami EC50.
Setting [3] is: Table C, Umami Ureas, read-out: Umami EC50.

Read-outs that look alike come from different tables or passages of the source.

On to `COC(=O)[C@@H](CC(C)C)NC(=O)c1cc2cc(C)ccc2[nH]1` [Example 36, (R)-methyl 4-methyl-2-(5-methyl-1H-indole-2-carboxamido)pentanoate], for which, under setting [1], the EC50 was 6600 nM.

`COc1ccc(C(=O)N[C@H]2CCc3ccccc32)cc1C` [drawing 26, (S)-N-(2,3-dihydro-1H-inden-1-yl)-4-methoxy-3-methylbeuzamide]: under “opposite enantiomers compared, read-out: AFFINITY FOR T1R1/T1R3 SAVORY RECEPTOR EC50 UM”, the EC50 is 80 nM.

As for `CCC(CC)NC(=O)c1cc2cc(OC)ccc2o1` [Example A13, 5-methoxy-N-(pentan-3-yl)benzofuran-2-carboxamide], under setting [2], the EC50 was determined as 1140 nM.

Consider `CC(NC(=O)Nc1ccccc1Cl)C1CCCCC1` (centres unmarked) [Example C5, 1-(2-chlorophenyl)-3-(1-cyclohexylethyl)urea], for which the EC50 under setting [3] was found to be 840 nM.

With `COc1ccc(C(=O)NC2CCCCC2C)cc1Cl` (centres unmarked) [Example A77, 3-chloro-4-methoxy-N-(2-methylcyclohexyl)benzamide], the EC50 under setting [2] came to 440 nM.

For the compound `Cc1ccc(C(=O)NC2CCCc3ccccc32)s1` (centres unmarked) [Example A39, 5-Methyl-thiophene-2-carboxylic acid (1,2,3,4-tetrahydro-naphthalen-1-yl) amide], the EC50 under setting [2] was found to be 1310 nM.

On to `O=C(NCc1ccc(OC(F)(F)F)cc1)c1ccsc1` [Example 107, Thiophene-3-carboxylic acid 4-trifluoromethoxy-benzylamide], for which the EC50 under setting [1] worked out at 2200 nM.

`COc1ccc(C(=O)NC(CO)CC(C)C)cc1Cl` (centres unmarked) [Example A98, 3-chloro-N-(1-hydroxy-4-methylpentan-2-yl)-4-methoxybenzamide]: under setting [2], the EC50 stood at 880 nM.

On to `CC[C@@H](C)[C@@H](NC(=O)c1ccc2c(c1)OCO2)C(=O)OC` [Example A42, (2R,3R)-methyl 2-(benzo[d][1,3]dioxole-5-carboxamido)-3-methylpentanoate], for which, under setting [2], the EC50 was found to be 350 nM.

As for `COC(=O)[C@@H](CC(C)C)NC(=O)c1ccc(OC)c(C)c1` [Example A63, (R)-methyl 2-(4-methoxy-3-methylbenzamido)-4-methylpentanoate], the EC50 under setting [2] stood at 250 nM.

Consider `CCCC(CCC)NC(=O)c1ccc(OC)c(OC)c1` [Example 65, 3,4-Dimethoxy-N-(1-propyl-butyl)-benzamide], for which the EC50 under setting [1] turned out to be 360 nM.

On to `CCC/C=C\C(=O)NC(CCC)CCC` [Example D9, (Z)-N-(heptan-4-yl)hex-2-enamide], for which the EC50 (Table D, Umami Acrylamides, read-out: Umami EC50) was 980 nM.

For `CCCC(CCC)NC(=O)c1ccc2ncccc2c1` [Example 101, N-(heptan-4-yl)quinoline-6-carboxamide], the EC50 under setting [1] was 3200 nM.

Consider `CCCC(CCC)NC(=O)c1cc2c(s1)CCC2` [Example A121, N-(heptan-4-yl)-5,6-dihydro-4H-cyclopenta[b]thiophene-2-carboxamide], for which, under setting [2], the EC50 turned out to be 150 nM.

In the case of `CCC(NC(=O)Nc1ccc(C)cc1Cl)c1ccccc1` (centres unmarked) [Example C24, 1-(2-chloro-4-methylphenyl)-3-(1-phenylpropyl)urea], the EC50 under setting [3] was determined as 480 nM.

For `COc1ccc(CNC(=O)c2ccccc2-n2cccc2)c(OC)c1` [Example 121, N-(2,4-dimethoxybenzyl)-2-(1H-pyrrol-1-yl)benzamide], under setting [1], the EC50 was 1660 nM.

For `CC(C)CC(COP(=O)(O)O)NC(=O)c1ccc2c(c1)OCO2` (centres unmarked) [Example 11, 2-(benzo[d][1,3]dioxole-6-carboxamido)-4-methylpentyl dihydrogen phosphate], under setting [1], the EC50 was 10900 nM.

As to `CCC(CC(C)C)NC(=O)c1cc2cc(C)ccc2o1` (centres unmarked) [Example A8, 5-methyl-N-(5-methylhexan-3-yl)benzofuran-2-carboxamide], the EC50 under setting [2] worked out at 500 nM.

As for `CCCC(CCC)NC(=O)c1ccc(SC)cc1` [Example A75, N-(heptan-4-yl)-4-(methylthio)benzamide], the EC50 under setting [2] came to 390 nM.

For `Cc1cc(C(=O)NC(C)CCc2ccccc2)ccc1O` (centres unmarked) [Example 111, 4-Hydroxy-3-methyl-N-(1-methyl-3-phenyl-propyl)-benzamide], the EC50 under setting [1] was found to be 2700 nM.

As to `CCCC(CCC)NC(=O)Nc1ccccc1OC` [Example C26, 1-(heptan-4-yl)-3-(2-methoxyphenyl)urea], the EC50 under setting [3] came out at 490 nM.

Turning to `CCCC(CC(C)C)NC(=O)c1ccc(C)c(C)c1` (centres unmarked) [Example 69, 3,4-dimethyl-N-(2-methylheptan-4-yl)benzamide], the EC50 under setting [1] is 130 nM.

Take `CCCC(CCC)NC(=O)Nc1ccccc1CC` [Example C9, 1-(2-ethylphenyl)-3-(heptan-4-yl)urea]: the EC50 under setting [3] is 1420 nM.

Regarding `COC(=O)[C@@H](CC(C)C)NC(=O)c1ccc2oc(C)nc2c1` [Example A28, (R)-4-Methyl-2-[(2-methyl-benzooxazole-5-carbonyl)-amino]-pentanoic acid methyl ester], the EC50 under setting [2] turned out to be 1690 nM.

On to `CCCC(CCC)NC(=O)c1nccc2ccccc12` [Example 103, N-(heptan-4-yl)isoquinoline-1-carboxamide], for which the EC50 under setting [1] was 14200 nM.

`CCCC(CCC)NC(=O)c1ccc(OC)cc1C#N` [Example 97, 2-cyano-N-(heptan-4-yl)-4-methoxybenzamide]: under setting [1], the EC50 was determined as 1390 nM.

`CCCC(CCC)NC(=O)c1cccc(C)c1` [Example A83, (heptan-4-yl)-3-methylbenzamide]: the EC50 under setting [2] was determined as 520 nM.

Take `CCCC(CCC)NC(=O)c1ccc2c(c1)OC(C(C)C)O2` (centres unmarked) [Example 21, N-(heptan-4-yl)-2-isopropylbenzo[d][1,3]dioxole-5-carboxamide]: the EC50 under setting [1] is 11500 nM.

In the case of `COc1ccc(CNC(=O)c2ccncc2-n2cccc2)c(OC)c1` [Example A66, N-(2,4-dimethoxybenzyl)-3-(1H-pyrrol-1-yl)isonicotinamide], the EC50 under setting [2] was 290 nM.

Take `COc1cc(C(=O)N[C@@H]2CCCc3ccccc32)nc(OC)n1` [Example A114, (R)-2,6-dimethoxy-N-(1,2,3,4-tetrahydronaphthalen-1-yl)pyrimidine 4-carboxamide]: the EC50 under setting [2] worked out at 2350 nM.

On to `CCCC(CCC)NC(=O)c1ccc(OC)c(F)c1` [Example A74, 3-fluoro-N-(heptan-4-yl)-4-methoxybenzamide], for which, under setting [2], the EC50 was found to be 350 nM.

Consider `CCCC(CCC)NC(=O)c1ccc2c(c1)CCO2` [Example A52, N-(heptan-4-yl)-2,3-dihydrobenzofuran-5-carboxamide], for which, under setting [2], the EC50 came to 1650 nM.

Take `CCCC(CCC)NC(=O)c1ccc(OC)c(C)c1` [Example A61, N-(heptan-4-yl)-4-methoxy-3-methylbenzamide]: under setting [2], the EC50 was found to be 220 nM.

For `Cc1cc(C(=O)N[C@H]2CCc3ccccc32)ccc1O` [Example A111, (S)-N-(2,3-dihydro-1H-inden-1-yl)-4-hydroxy-3-methylbenzamide], the EC50 under setting [2] was determined as 660 nM.

Take `COC(=O)[C@@H](CC(C)C)NC(=O)c1cccc(C)c1` [Example A99, (R)-methyl 4-methyl-2-(3-methylbenzamido)pentanoate]: under setting [2], the EC50 worked out at 890 nM.

As for `COC[C@@H](CC(C)C)NC(=O)/C=C/c1ccc(OC)cc1` [Example 80, N-(1-Methoxymethyl-3-methyl-butyl)-3-(4-methoxy-phenyl)-acrylamide], the EC50 under setting [1] came out at 900 nM.

With `COC(=O)[C@@H](CC(C)C)NC(=O)/C=C/c1cccs1` [Example 83, 4-Methyl-2-(3-thiophen-2-yl-acryloylamino)-pentanoic acid methyl ester], the EC50 under setting [1] stood at 590 nM.

Regarding `CCCC(NC(=O)c1ccc(C)c(C)c1)C(C)C` (centres unmarked) [Example 68, 3,4-dimethyl-N-(2-methylhexan-3-yl)benzamide], the EC50 under setting [1] worked out at 110 nM.
